Source: ChEMBL document CHEMBL2385007, “Synthesis and biological evaluation of prodrugs of 2-fluoro-2-deoxyribose-1-phosphate and 2,2-difluoro-2-deoxyribose-1-phosphate” (Bioorg Med Chem Lett, 2013)

Legend:
Human alphaherpesvirus 3 [1] = experiment: Antiviral activity against Varicellla-zoster virus Oka infected in HEL cells assessed as inhibition of virus-induced cytopathicity; type: functional, cell-based; details: Human alphaherpesvirus 3, strain Oka vaccine
Human alphaherpesvirus 1 [2] = experiment: Antiviral activity against thymidine kinase-deficient ACV-resistant HSV-1 KOS infected in HEL cells assessed as inhibition of virus-induced cytopathicity; type: functional, organism-based; details: Human alphaherpesvirus 1, KOS
Human alphaherpesvirus 3 [3] = experiment: Antiviral activity against Varicellla-zoster virus 07-1 infected in HEL cells assessed as inhibition of virus-induced cytopathicity; type: functional, organism-based; details: Human alphaherpesvirus 3, 07-1, HEL
Felid alphaherpesvirus 1 = experiment: Antiviral activity against Feline herpesvirus in cat CrFK cells assessed as plaque formation; type: functional, organism-based; details: Felid alphaherpesvirus 1, CRFK
[4] = tested on: Human immunodeficiency virus 2; experiment: Antiviral activity against HIV-2 ROD infected in human CEM cells assessed as HIV-induced host giant cell formation after 4 days by microscopic analysis; type: functional, organism-based; details: Human immunodeficiency virus 2, ISOLATE ROD, CCRF-CEM, 96 h
L1210 = experiment: Cytotoxicity against mouse L1210 cells; type: cell-based
[5] = Cytotoxicity against cat CRFK cells; type: cell-based, Felis catus
Feline coronavirus = experiment: Antiviral activity against Feline coronavirus in cat CrFK cells assessed as plaque formation; type: functional, organism-based; details: Alphacoronavirus 1, CRFK
Cytomegalovirus = experiment: Antiviral activity against Cytomegalovirus Davis infected in HEL cells assessed as inhibition of virus-induced cytopathicity; type: functional, organism-based; details: Human betaherpesvirus 5, Davis
[6] = Cytotoxicity against human HEL cells; type: cell-based
Human alphaherpesvirus 1 [7] = experiment: Antiviral activity against HSV-1 KOS infected in HEL cells assessed as inhibition of virus-induced cytopathicity; type: functional, organism-based; details: Human alphaherpesvirus 1, KOS
Human betaherpesvirus 5 = experiment: Antiviral activity against Cytomegalovirus AD-169 infected in HEL cells assessed as inhibition of virus-induced cytopathicity; type: functional, organism-based; details: Human betaherpesvirus 5, AD169, HEL
[8] = tested on: Human immunodeficiency virus 1; experiment: Antiviral activity against HIV-1 3B infected in human CEM cells assessed as HIV-induced host giant cell formation after 4 days by microscopic analysis; type: functional, organism-based; details: Human immunodeficiency virus 1, 3B, CCRF-CEM, 96 h
CCRF-CEM = experiment: Cytotoxicity against human CEM cells; type: cell-based
Human alphaherpesvirus 2 = experiment: Antiviral activity against HSV-2 G infected in HEL cells assessed as inhibition of virus-induced cytopathicity; type: functional, organism-based; details: Human alphaherpesvirus 2, strain G
[9] = tested on: Vesicular stomatitis virus; experiment: Antiviral activity against Vesicular somatitis virus infected in HEL cells assessed as inhibition of virus-induced cytopathicity; type: functional, organism-based
Vaccinia virus = experiment: Antiviral activity against Vaccinia virus Lederle infected in HEL cells assessed as inhibition of virus-induced cytopathicity; type: functional, organism-based; details: Orthopoxvirus vaccinia

SMILES | EC50 (Human alphaherpesvirus 3 [1]) | EC50 (Human alphaherpesvirus 1 [2]) | EC50 (Human alphaherpesvirus 3 [3]) | EC50 (Felid alphaherpesvirus 1) | EC50 [4] | IC50 (L1210) | CC50 [5] | EC50 (Feline coronavirus) | EC50 (Cytomegalovirus) | MCC [6] | EC50 (Human alphaherpesvirus 1 [7]) | EC50 (Human betaherpesvirus 5) | EC50 [8] | IC50 (CCRF-CEM) | EC50 (Human alphaherpesvirus 2) | EC50 [9] | EC50 (Vaccinia virus)
C[C@H](NP(=O)(Oc1cccc2ccccc12)O[C@H]1O[C@H](CO)[C@@H](O)C1(F)F)C(=O)OC1CCCCC1 (some centres undefined) | > 20 µM | > 20 µM | > 20 µM | > 20 µM | > 50 µM | > 30 µM | > 100 µM | > 20 µM | > 20 µM | ≥ 100 µM | > 20 µM | > 20 µM | > 50 µM | > 30 µM | > 20 µM | > 20 µM | > 20 µM
C[C@H](NP(=O)(Oc1ccccc1)O[C@@H]1O[C@H](CO)[C@@H](O)C1(F)F)C(=O)OC1CCCCC1 (some centres undefined) | > 20 µM | > 20 µM | > 20 µM | > 20 µM | > 250 µM | > 30 µM | > 100 µM | > 20 µM | > 20 µM | ≥ 100 µM | > 20 µM | > 20 µM | > 250 µM | > 30 µM | > 20 µM | > 20 µM | > 20 µM
C[C@H](NP(=O)(Oc1cccc2ccccc12)O[C@@H]1O[C@H](CO)[C@@H](O)C1(F)F)C(=O)OC1CCCCC1 (mixture of isomers) | > 20 µM | > 20 µM | > 20 µM | > 20 µM | > 50 µM | > 30 µM | > 100 µM | > 20 µM | > 20 µM | ≥ 100 µM | > 20 µM | > 20 µM | > 50 µM | > 30 µM | > 20 µM | > 20 µM | > 20 µM
C[C@H](NP(=O)(Oc1ccccc1)O[C@H]1O[C@H](CO)[C@@H](O)C1(F)F)C(=O)OCC(C)(C)C (mixture of isomers) | > 20 µM | > 20 µM | > 20 µM | > 20 µM | > 250 µM | > 30 µM | > 100 µM | > 20 µM | > 20 µM | ≥ 100 µM | > 20 µM | > 20 µM | > 250 µM | > 30 µM | > 20 µM | > 20 µM | > 20 µM
COC(=O)[C@H](C)NP(=O)(Oc1ccccc1)O[C@H]1O[C@H](CO)[C@@H](O)C1(F)F (mixture of isomers) | > 20 µM | > 20 µM | > 20 µM | > 20 µM | > 250 µM | > 30 µM | > 100 µM | > 20 µM | > 20 µM | ≥ 100 µM | > 20 µM | > 20 µM | > 250 µM | > 30 µM | > 20 µM | > 20 µM | > 20 µM
COC(=O)[C@@H](NP(=O)(Oc1ccccc1)O[C@H]1O[C@H](CO)[C@@H](O)C1(F)F)C(C)C (mixture of isomers) | > 20 µM | > 20 µM | > 20 µM | > 20 µM | > 250 µM | > 30 µM | > 100 µM | > 20 µM | > 20 µM | ≥ 100 µM | > 20 µM | > 20 µM | > 250 µM | > 30 µM | > 20 µM | > 20 µM | > 20 µM
COC(=O)[C@@H](NP(=O)(Oc1cccc2ccccc12)O[C@H]1O[C@H](CO)[C@@H](O)C1(F)F)C(C)C (mixture of isomers) | > 20 µM | > 20 µM | > 20 µM | > 20 µM | > 50 µM | > 30 µM | > 100 µM | > 20 µM | > 20 µM | ≥ 100 µM | > 20 µM | > 20 µM | > 50 µM | > 30 µM | > 20 µM | > 20 µM | > 20 µM
